Data published in paper PMC11241340, “The Discovery of Novel α2a Adrenergic Receptor Agonists Only Coupling to Gαi/O Proteins by Virtual Screening” (International Journal of Molecular Sciences, 2024).
Where a chain is given by its changes, count along the chain named.

Assays:
α2A-AR [1] = target: T1, α2A-AR (Homo sapiens, UniProt P08913); assay: GloSensor cAMP assay in HEK293 cells transfected with α2A-AR; type: cell-based; set-up: Flag; expressed in transfected cells; host or cells: HEK293; conditions: for decrease in cAMP accumulation after pertussis toxin pretreatment: PTX 500 ng/mL, 24 h; for increase of cAMP accumulation (Gαs coupling) / decrease of cAMP accumulation stimulated by forskolin (Gαi/o coupling): α2A-AR HEK293, P300–2342 10^−10–10^−5M; for increase of cAMP accumulation (Gαs coupling): DMED 10^−8–10^−5M; for decrease of cAMP accumulation stimulated by forskolin (Gαi/o coupling): FSK 10^−5M, DMED 10^−13–10^−9M
T1 sequence (P08913 1-465): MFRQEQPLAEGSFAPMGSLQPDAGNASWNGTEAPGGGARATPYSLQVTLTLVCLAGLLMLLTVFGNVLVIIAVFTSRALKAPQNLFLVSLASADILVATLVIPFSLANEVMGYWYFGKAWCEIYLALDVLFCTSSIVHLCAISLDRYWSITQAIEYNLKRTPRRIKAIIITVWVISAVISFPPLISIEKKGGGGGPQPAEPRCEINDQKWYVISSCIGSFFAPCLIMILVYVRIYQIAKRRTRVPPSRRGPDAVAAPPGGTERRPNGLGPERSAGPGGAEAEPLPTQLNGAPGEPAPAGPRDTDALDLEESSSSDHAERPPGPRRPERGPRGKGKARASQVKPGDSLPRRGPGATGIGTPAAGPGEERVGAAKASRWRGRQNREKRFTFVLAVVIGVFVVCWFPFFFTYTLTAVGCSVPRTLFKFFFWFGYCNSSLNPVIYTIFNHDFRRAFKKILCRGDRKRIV
Description: (§1) According to the GloSensor cAMP biosensor (Promega, Shanghai, China) manufacturer protocols, HEK293 cells were co-transfected with the pGloSensor-22F cAMP plasmid (Promega, E1171) and pCMV6 Entry-Flag-α2A-AR. After 24 h, the cells were seeded in white 96-well plates. The next day, the cell media were replaced by 90 μL of fresh DMEM with 2% v/v GloSensor cAMP reagent (Promega, E1290) and incubated for 60 min at 37 °C. Before drug stimulation, an initial measurement of the baseline signal was detected. […] PTX 500 ng/mL pretreatment for 24 h was used to assay the chemical effects on Gi coupling following α2A-AR activation. Two mutations, V114A and Y394A were introduced into the α2A-AR genes, respectively, using standard QuickChange PCR. […] In each experiment, the cAMP assay used pcDNA3.1 myc/hisB transfected cells as a negative control and cells stimulated with 10 μM of forskolin as a positive control. The signal was read using a Victor 2D Instrument (PerkinElmer) at 675 nm. The production of cAMP% was calculated (the signal value after chemicals addition–baseline signal value)/the baseline signal value *100 as described in our previous study.

α2B-AR [2] = target: T2, α2B-AR (Homo sapiens, UniProt P18089); assay: GloSensor cAMP assay in HEK293 cells transfected with α2B-AR; type: cell-based; set-up: Flag; expressed in transfected cells; host or cells: HEK293; conditions: for effect on cAMP accumulation (agonist activity) in α2B-AR cells: HEK293 α2B-AR, DMED 10^−10–10^−7M, P300–2342 10^−10–10^−5M; for effect of pretreatment on cAMP accumulation induced by DMED (antagonist activity): α2B-AR-HEK293 cells, 10 μM
T2 sequence (P18089 1-450): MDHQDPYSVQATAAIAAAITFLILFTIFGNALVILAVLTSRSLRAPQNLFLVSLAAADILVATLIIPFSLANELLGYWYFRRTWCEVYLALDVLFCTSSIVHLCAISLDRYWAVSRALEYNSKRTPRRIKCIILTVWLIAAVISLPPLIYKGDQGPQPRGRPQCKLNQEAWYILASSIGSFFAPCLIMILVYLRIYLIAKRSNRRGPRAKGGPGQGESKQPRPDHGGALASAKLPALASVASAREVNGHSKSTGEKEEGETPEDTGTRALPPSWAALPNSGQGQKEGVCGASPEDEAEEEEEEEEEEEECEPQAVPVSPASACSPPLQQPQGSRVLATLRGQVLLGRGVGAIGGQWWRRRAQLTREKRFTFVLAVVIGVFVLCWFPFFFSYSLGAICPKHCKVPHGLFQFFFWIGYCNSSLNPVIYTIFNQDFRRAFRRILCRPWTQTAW

α2B-AR [3] = target: T2, α2B-AR; assay: Competitive inhibition of [3H] Rauwolscine binding, CHO-K1 membranes
C57BL/6 mice = assay: Spontaneous locomotor activity of mice; type: in vivo, mouse; conditions: for inhibition of mice locomotor activity compared to solvent: 10 nmol/mice, i.c.v.
From the text: Animals had free access to water and food. […] Animals were assigned to groups randomly before testing.

[4] = target: T3, α2A-AR mutant Y394A (α2AY394A-AR) (Homo sapiens, UniProt P08913, Y409A); assay: GloSensor cAMP assay in HEK293 cells transfected with α2AY394A-AR; type: cell-based; conditions: forskolin 10 μM
T3 construct: Flag; expressed in transfected cells; host or cells: HEK293
T3 sequence (P08913 1-465 Y409A): T1 sequence (P08913 1-465) with Y409A
Description: as §1

[5] = target: T4, α2A-AR mutant V114A (α2AV114A-AR) (Homo sapiens, UniProt P08913, V129A); assay: GloSensor cAMP assay in HEK293 cells transfected with α2AV114A-AR; type: cell-based; conditions: forskolin 10 μM
T4 construct: Flag; expressed in transfected cells; host or cells: HEK293
T4 sequence (P08913 1-465 V129A): T1 sequence (P08913 1-465) with V129A
Description: as §1

α2A-AR [6] = target: T1, α2A-AR; assay: Competitive inhibition of [3H] Rauwolscine binding, CHO-K1 membranes
C57/B6 mice = conditions: 432 nmol/kg, i.p.
Description: C57BL/6 mice (20–22 g) were purchased from the SPF biotechnology co., LTD (Beijing, China). All the animals were housed in an alternating 12 h light/12 h dark cycle room, which was maintained in a climate-controlled environment (25 ± 1 °C). Animals had free access to water and food. All the experimental procedures were reviewed and approved by the ethics committee and institutional animal care and use committee of the Beijing Institute of Pharmacology and Toxicology, Beijing, China (IACUC of AMMS–06–2017–001). Animals were assigned to groups randomly before testing. Testing occurred within the same approximate time of day between experiments. The experimenter was blinded to treatment throughout the course of behavioral testing.
The LORR in C57/B6 mice were used to study the effects of screening compounds.

Compound | effect on cAMP accumulation in presence of α2A-AR selective antagonist BRL44408 (α2A-AR [1]; BRL44408 1 μM) | decrease in cAMP accumulation after pertussis toxin pretreatment (α2A-AR [1]) | increase of cAMP accumulation (Gαs coupling) (α2A-AR [1]) | decrease of cAMP accumulation stimulated by forskolin (Gαi/o coupling) (α2A-AR [1]) | effect on cAMP accumulation (agonist activity) in α2B-AR cells (α2B-AR [2]) | effect of pretreatment on cAMP accumulation induced by DMED (antagonist activity) (α2B-AR [2]) | maximum binding inhibition of [3H] Rauwolscine, α2B-AR (α2B-AR [3]) [%] | antagonism of the locomotor inhibition by α2-AR antagonist atipamezole (C57BL/6 mice; compound 10 nmol/mice i.c.v., atipamezole 0.2 mg/kg i.p.) | locomotor activity of mice (abstract statement) (C57BL/6 mice; p < 0.05, dose not given) | decrease of cAMP production in α2AY394A-AR cells [4] | decrease of cAMP production in α2AV114A-AR cells [5] | maximum binding inhibition of [3H] Rauwolscine, α2A-AR (α2A-AR [6]) [%] | IC50 (α2B-AR [3]) [µM] | inhibition of mice locomotor activity compared to solvent (C57BL/6 mice) | IC50 (α2A-AR [6]) [µM] | LORR induced in mice (C57/B6 mice) [%] | cAMP production in α2AY394A-AR compared to α2A-AR wild type [4] | cAMP production in α2AV114A-AR compared to α2A-AR wild type [5]
CCN(CC)CCNC(=O)c1ccc2c(c1)n(Cc1cccc(F)c1)c(=O)c1ccnn12 [P300–2342] | antagonized | abolished | without increasing | concentration-dependently decreased | no effect | slightly decreased | 71 | could be antagonized | significantly decreased | did not decrease | did not decrease | 83 | – | – | – | – | – | –
O=C(NCCN1CCCCC1)c1ccc2c(c1)n(Cc1cccc(F)c1)c(=O)c1ccnn12 [P300–2344] | – | – | without increasing | decreased | no activation | no effects | 86 | – | – | – | – | 91 | 15.9 | 30%–60% | 11.3 | – | – | –
CN(C)CCNC(=O)c1ccc2c(c1)n(Cc1cccc(F)c1)c(=O)c1ccnn12 [T226–1970] | – | – | without increasing | decreased | no activation | slightly decreased | 94 | – | – | – | – | 85 | 8.56 | 30%–60% | 19.5 | – | – | –
Cc1cccc([C@H](C)c2cnc[nH]2)c1C [DMED, Dexmedetomidine, reference compound] | – | abolished | concentration-dependently increased | concentration-dependently decreased | concentration-dependently increased | – | – | – | – | did not decrease | did not decrease | – | 0.0146 | – | – | 50 | increased | increased
COc1ccccc1N1CCN(CCN2C(=O)c3ccccc3C(C)(C)C2=O)CC1 [ARC239, reference compound] | – | – | – | – | – | decreased | – | – | – | – | – | – | – | – | – | – | – | –
CCN(CC)CCNC(=O)c1ccc2c(c1)n(Cc1ccccc1)c(=O)c1ccnn12 [P300–1500] | – | – | without increasing | decreased | no activation | no effects | 85 | – | – | – | – | 90 | 19 | 30%–60% | 9.66 | – | – | –
